In patent US9295735B2, “Liposomal composition for convection-enhanced delivery to the central nervous centre” (MEDGENESIS THERAPEUTIX, INC., priority 2008, dated 2016):
Where two headings read alike, the source gives them in different places.

Key:
[1] = Brain tissue pharmacokinetics of Ls-TPT formulations and free topotecan after intracerebral CED (HPLC of total topotecan); assay type: in vivo, Sprague-Dawley rats
Protocol: The experiments in this example were performed with research grade material of both liposomal-topotecan (Ls-TPT) and liposomal gadodiamide (Ls-GD). Topotecan (TPT) for free topotecan formulation and for Ls-TPT preparation was obtained from Hisun Pharmaceuticals (Taizhou City, Zhejiang, China). Ls-TPT was provided by Northern Lipids Inc (Burnaby, BC, Canada). In brief, liposomes were composed of distearoylphosphatidylcholine (DSPC), distearoylphosphatidylglycerol (DSPG), and cholesterol at a 7:2:1 molar ratio with 75 to 90 nm target size. Topotecan was remotely loaded (actively encapsulated) into liposomes in response to a transmembrane pH gradient using internal and external buffers consisting of ammonium sulfate 250 mM pH 5.5 and histidine 5 mM/NaCl 145 mM pH 6.0 respectively. Topotecan concentrations of 0.67 and 2.0 mg/mL with a 0.1 and 0.3 (w/w) drug:lipid ratio were respectively targeted assuming a 90-95% drug encapsulation efficiency. A constant total lipid concentration target of 6.7 mg/mL was maintained in both formulations. The manufacturing process is described in details in Example 2.1.2.
For the formulation screening component of this example, the animals were divided in 4 groups based on Ls-TPT formulations or free topotecan as outlined in Table 1.
Rats were anesthetized with either isoflurane (5% for induction; 2.5 to 3.0% for maintenance during surgery) inhalation or a combination of ketamine (60 mg/kg) and xylazine (8 mg/kg) via an intraperitoneal injection. […] Craniectomy was performed using a small electric dental drill with 1-mm diameter burr holes, 0.5 mm anterior and 3 mm left and right from the bregma. […] The test article was injected bilaterally at one site into each striatum.
The brains were removed, placed on ice and the striata dissected using a dorsal approach and the tissue frozen in liquid nitrogen. The tissue was subsequently homogenized with an equal volume of water (1:1 v/v) and then extracted with methanol and stored at −70° C. until shipment to the Sponsor. Tail vein blood was collected (1.0 mL) for the formulation tissue and plasma pharmacokinetics component of this Example.
High performance liquid chromatography (HPLC) of total topotecan (free and liposome-encapsulated) in brain tissue and in plasma was performed by Northern Lipids Inc. (Burnaby, BC, Canada) using an isocratic reversed phase HPLC/UV method. Method details were as follows. Briefly, the animals (n=3) were sacrificed at 1 and 6 hours, 2, 4 and 7 days. The brains were removed, placed on ice, the striata dissected using a dorsal approach and the tissue frozen in liquid nitrogen. Equal volume of ice cold water (1:1 w/w) was added and the thawed tissue was homogenized (Biospec) mechanically for 2 minutes and frozen.

[2] = system: various malignant glioma cells lines; settings: read-out: 50% inhibitory concentration (IC50), cited from earlier work
[3] = normal rat brain tissue after CED, non-compartmental analysis

concentration at 1 h ([1]; Sprague-Dawley, brain (striatum), normal rat striatum, CED 20 μL per hemisphere, TPT 0.5 mg/mL, 1 hour, read-out: Topotecan brain tissue concentration, Mean ± STD): 44.3 ± 39.4 µM
concentration at 6 h ([1]; Sprague-Dawley, brain (striatum), normal rat striatum, CED 20 μL per hemisphere, TPT 0.5 mg/mL, 6 hours, read-out: Topotecan brain tissue concentration, Mean ± STD): 15.6 ± 13.8 µM
concentration at 48 h ([1]; Sprague-Dawley, brain (striatum), normal rat striatum, CED 20 μL per hemisphere, TPT 0.5 mg/mL, 48 hours, read-out: Topotecan brain tissue concentration, Mean ± STD): 0 nM
concentration at 96 h ([1]; Sprague-Dawley, brain (striatum), normal rat striatum, CED 20 μL per hemisphere, TPT 0.5 mg/mL, 96 hours, read-out: Topotecan brain tissue concentration, Mean ± STD): 0 nM
concentration at 168 h ([1]; Sprague-Dawley, brain (striatum), normal rat striatum, CED 20 μL per hemisphere, TPT 0.5 mg/mL, 168 hours, read-out: Topotecan brain tissue concentration, Mean ± STD): 0 nM
AUC(0-last) [1, 3]: 5.5 µg·days/g
t1/2 [1, 3]: much shorter
Topotecan brain tissue concentration, Mean ± STD ([1]; normal rat striatum, CED 20 μL per hemisphere, TPT 0.5 mg/mL, 1 hour): 0.0203 ± 0.0181 mg/g of brain tissue
Topotecan brain tissue concentration, Mean ± STD ([1]; normal rat striatum, CED 20 μL per hemisphere, TPT 0.5 mg/mL, 6 hours): 0.0071 ± 0.0063 mg/g of brain tissue
Topotecan brain tissue concentration, Mean ± STD ([1]; normal rat striatum, CED 20 μL per hemisphere, TPT 0.5 mg/mL, 48 hours): 0 mg/g of brain tissue
Topotecan brain tissue concentration, Mean ± STD ([1]; normal rat striatum, CED 20 μL per hemisphere, TPT 0.5 mg/mL, 96 hours): 0 mg/g of brain tissue
Topotecan brain tissue concentration, Mean ± STD ([1]; normal rat striatum, CED 20 μL per hemisphere, TPT 0.5 mg/mL, 168 hours): 0 mg/g of brain tissue
Structure (SMILES): CC[C@@]1(O)C(=O)OCc2c1cc1n(c2=O)Cc2cc3c(CN(C)C)c(O)ccc3nc2-1 [Formulation F4, topotecan]
IC50 ([2]; exposure over 1 hour): 2400 nM
IC50 ([2]; exposure over 24 hours): 38 nM
IC50 ([2]; exposure over 72 hours): 280 nM
IC50 ([2]; exposure over 120 hours): ≥ 20 nM
